According to patent US9487749B2 (priority 2009, dated 2016):
Values joined by “and” are separate entries in the source; they are usually repeats but may differ in a detail not shown here. Equal entries are not always repeated.

Tests used:
Format in all cases: cell-based
[1] = tested on: Pseudomonas aeruginosa; assay: USP Antimicrobial Effectiveness Test (AET) of MSM supplemented TSB; parameters: key: Colonies too numerous to count (TNTC); settings: 48 hrs
Excerpt: (§1) Compounds or formulated products having antimicrobial activity may be evaluated with the United States Pharmacopeia (USP) Antimicrobial Effectiveness Test (AET). The AET involves the addition of specified microorganisms (Candida albicans, Aspergillus niger, Escherichia coli, Pseudomonas aeruginosa and Staphylococcus aureus) directly to a test product at relatively high concentrations to simulate contamination. The product is held for one month, with weekly analysis of microorganism levels. […] For yeast and mold, no increase from the initial inoculums level is permitted. […] Inoculations were made using Candida albicans, Aspergillus niger, Escherichia coli, Pseudomonas aeruginosa and Staphylococcus aureus. Tryptic soy broth (TSB) was used as the culturing media. […] The inoculated media was held for one month, during which time the added microorganisms were enumerated weekly to determine if they were growing, dying off, or remaining near the initial inoculation level. […] The acceptance criteria for antimicrobial effectiveness are described in detail in the USP, herein incorporated by reference.

[2] = tested on: Escherichia coli; assay: as above; parameters: key: Colonies too numerous to count (TNTC); settings: 48 hrs
Excerpt: as §1

[3] = tested on: Lactobacillus rhamnosus; assay: Growth of Lactobacillus rhamnosus in MRS broth fortified with MSM; settings: for Growth (colony forming units): 0.04% MSM in MRS broth, 0-72 hours
Description: Each organism (Lactobacillus rhamnosus, Lactobacillus acidophilus, and Bifidobacterium bifidum) was grown in MRS bacterial growth medium (broth) and plated on MRS agar at different time intervals. Results are expressed in colony forming units per milliliter (cfu/mL). […] All bacterial organisms were incubated at 35° C. +/−2° C. for the duration of the study. […] All preparations and plating were conducted at room temperature. […] Test samples were plated in triplicate at each test date and the averages are reported.

[4] = tested on: Lactobacillus acidophilus ATCC #4356; assay: Lactobacillus acidophilus growth and recovery in a simulated intestinal tract environment
[5] = tested on: Rhinovirus type 14 (ATCC #VR-284)
[6] = tested on: Lactobacillus acidophilus; assay: Growth of Lactobacillus acidophilus in Acidophilus milk fortified with MSM
Excerpt: 31, 2013. […] The Acidophilus milk was low fat (Darigold).

[7] = tested on: Acidophilus plus Bifidus milk microorganisms; assay: Growth in Acidophilus plus Bifidus milk fortified with MSM; settings: A/B milk

With CS(C)(=O)=O [MSM, Methylsulfonylmethane] the “AET test results (microorganism count)” value ([1]; 1:100 dilution of MSM in TSB) was “TNTC”, the “AET test results (microorganism count)” value ([1]; 1:1000 dilution of MSM in TSB) was “TNTC” and the “AET test results (microorganism count)” value ([2]; 1:100 dilution of MSM in TSB) was “TNTC”. For the same compound, the “AET test results (microorganism count)” value ([2]; 1:1000 dilution of MSM in TSB) was “TNTC”, the “Growth (colony forming units)” value ([3]; 0 hours of incubation) was 1.7 × 10^6 cfu/mL and the “Growth (colony forming units)” value ([3]; 12 hours of incubation) was 2.1 × 10^7 cfu/mL. The “Growth (colony forming units)” value ([3]; 24 hours of incubation) was 1.5 × 10^9 cfu/mL, the “Growth (colony forming units)” value ([3]; 36 hours of incubation) was 1.8 × 10^9 cfu/mL and the “Growth (colony forming units)” value ([3]; 48 hours of incubation) was 2.1 × 10^9 cfu/mL. The “Growth (colony forming units)” value ([3]; 60 hours of incubation) was 2.6 × 10^9 cfu/mL, the “recovery higher than the 0% control” value ([3]; 0.2% MSM, first 12 hours) was 41% and the “recovery higher than the 0% control” value ([3]; 1% MSM, first 12 hours) was 47%. The “recovery more than the 0% control” value ([3]; all MSM samples, first 12 hours) was “at least 12%”, the “log increase in the next 8 hours after hour 48” value ([4]; 5.0% MSM) was 3.16 logs and the “time to substantial growth rate increase after hour 24” value ([4]; 5.0% MSM) was 6 h. For the same compound, the “log growth of Lactobacillus acidophilus” value ([4]; 5.0% MSM, hour 36) was 8.65 logs, the “Log Growth of Lactobacillus acidophilus” value ([4]; 5.0% MSM, 20 min Gastric) was under 1.00 log and the “Log Growth of Lactobacillus acidophilus” value ([4]; 5.0% MSM, Hour 3, simulated intestinal fluid) was 1.62 log. For the same compound, the “Log Growth of Lactobacillus acidophilus” value ([4]; 5.0% MSM, Hour 8, simulated intestinal fluid) was 2.33 log, the “Log Growth of Lactobacillus acidophilus” value ([4]; 5.0% MSM, Hour 24, simulated intestinal fluid) was 6.39 log and the “Log Growth of Lactobacillus acidophilus” value ([4]; 5.0% MSM, Hour 30, simulated intestinal fluid) was 6.63 log. The “Log Growth of Lactobacillus acidophilus” value ([4]; 5.0% MSM, Hour 36, simulated intestinal fluid) was 8.65 log, the “Log Growth of Lactobacillus acidophilus” value ([4]; 5.0% MSM, Hour 48, simulated intestinal fluid) was 10.17 log and the “Log Growth of Lactobacillus acidophilus” value ([4]; 5.0% MSM, Hour 54, simulated intestinal fluid) was 13.33 log. For the same compound, the “Log Growth of Lactobacillus acidophilus” value ([4]; 5.0% MSM, Hour 60, simulated intestinal fluid) was 12.76 log, the “Log Growth of Lactobacillus acidophilus” value ([4]; 5.0% MSM, Hour 72, simulated intestinal fluid) was 12.78 log and the “Log Growth of Lactobacillus acidophilus” value ([4]; 5.0% MSM, Starting Inoculum (milk)) was 7.02 log. For the same compound, the “log increase in the next 8 hours after hour 48” value ([4]; […] MSM) was 2.07 logs, the “Log Growth of Lactobacillus acidophilus” value ([4]; […] MSM, 20 min Gastric) was under 1.00 log and the “Log Growth of Lactobacillus acidophilus” value ([4]; […] MSM, Starting Inoculum (milk)) was 6.86 log. For the same compound, the “Average Log Stimulation” value [5] was 0.053 log10 and 0.11 log10, the “Average Percent Stimulation” value [5] was 11.49% and 22.38% and the “Average TCID50” value [5] was 4.42 log10 and 5.00 log10 and 5.58 log10 and 5.42 log10 and 5.67 log10 and 5.25 log10. The “Log Stimulation” value [5] was 0.08 log10 and 0.00 log10 and 0.17 log10, the TCID50 [5] was 4.25 log10 and 4.50 log10 and 4.75 log10 and 5.00 log10 and 5.25 log10 and 5.50 log10 and 6.00 log10 and 5.75 log10 and the peak growth ([6]; 0.5% MSM) was 10.72 logs. The “log growth lower than control” value ([6]; 0.5% MSM, listed as order: Day 14, Day 28) was 0.74 logs and 1.00 logs, the peak growth ([6]; 5.0% MSM) was 10.89 log and the “log increase in growth within the first 8 hours (duplicates)” value ([6]; […] MSM) was 2.27 logs. For the same compound, the peak growth ([6]; […] MSM) was 10.59 logs, the “log growth lower than control” value ([6]; […] MSM, Day 28) was 0.68 logs and the “Growth of Lactobacillus acidophilus in Milk fortified with MSM average” value (“Growth … with MSM average” below) ([6]; 0.50% MSM, Day 7) was 10.68 log. For the same compound, the “Growth … with MSM average” value ([6]; 0.50% MSM, Day 14) was 6.22 log, the “Log Growth of Lactobacillus acidophilus in Milk fortified with MSM” value (“Log Growth … with MSM” for short) ([6]; 0.50% MSM, Day 21) was 5.37 log and the “Growth … with MSM average” value ([6]; 0.50% MSM, Day 21) was 5.37 log. The “Growth … with MSM average” value ([6]; 0.50% MSM, Day 28) was 3.00 log, the “Growth … with MSM average” value ([6]; 0.50% MSM, hour 0) was 6.98 log and the “Log Growth … with MSM” value ([6]; 0.50% MSM, hour 8) was 9.06 log and 9.00 log. For the same compound, the “Growth … with MSM average” value ([6]; 0.50% MSM, hour 8) was 9.03 log, the “Growth … with MSM average” value ([6]; 0.50% MSM, hour 24) was 9.38 log and the “Log Growth … with MSM” value ([6]; 0.50% MSM, hour 32) was 9.12 log. For the same compound, the “Growth … with MSM average” value ([6]; 0.50% MSM, hour 32) was 9.16 log, the “Log Growth … with MSM” value ([6]; 0.50% MSM, hour 48) was 8.55 log and 8.69 log and the “Growth … with MSM average” value ([6]; 0.50% MSM, hour 48) was 8.62 log. The “Log Growth … with MSM” value ([6]; 0.50% MSM, hour 56) was 8.77 log and 8.69 log, the “Growth … with MSM average” value ([6]; 0.50% MSM, hour 56) was 8.73 log and the “Log Growth … with MSM” value ([6]; 0.50% MSM, hour 72) was 8.56 log and 8.67 log. For the same compound, the “Growth … with MSM average” value ([6]; 0.50% MSM, hour 72) was 8.62 log, the “Growth … with MSM average” value ([6]; 0.50% MSM, hour 80) was 9.72 log and the “Growth … with MSM average” value ([6]; 0.50% MSM, hour 96) was 10.09 log. For the same compound, the “Growth … with MSM average” value ([6]; 0.50% MSM, hour 104) was 9.50 log, the “Growth … with MSM average” value ([6]; 5.00% MSM, Day 7) was 10.71 log and the “Growth … with MSM average” value ([6]; 5.00% MSM, Day 14) was 8.04 log. For the same compound, the “Log Growth … with MSM” value ([6]; 5% MSM, Day 21) was 5.64 log and 5.48 log, the “Growth … with MSM average” value ([6]; 5.00% MSM, Day 21) was 5.56 log and the “Log Growth … with MSM” value ([6]; 5% MSM, Day 28) was 2.52 log. The “Growth … with MSM average” value ([6]; 5.00% MSM, Day 28) was 2.52 log, the “Log Growth … with MSM” value ([6]; 5% MSM, hour 0) was 6.56 log and 6.47 log and the “Growth … with MSM average” value ([6]; 5.00% MSM, hour 0) was 6.52 log. The “Growth … with MSM average” value ([6]; 5.00% MSM, hour 8) was 8.91 log, the “Growth … with MSM average” value ([6]; 5.00% MSM, hour 24) was 9.29 log and the “Growth … with MSM average” value ([6]; 5.00% MSM, hour 32) was 9.26 log. For the same compound, the “Log Growth … with MSM” value ([6]; 5% MSM, hour 48) was 8.78 log and 8.72 log, the “Growth … with MSM average” value ([6]; 5.00% MSM, hour 48) was 8.75 log and the “Log Growth … with MSM” value ([6]; 5% MSM, hour 56) was 8.88 log and 8.7 log. For the same compound, the “Growth … with MSM average” value ([6]; 5.00% MSM, hour 56) was 8.79 log, the “Log Growth … with MSM” value ([6]; 5% MSM, hour 72) was 8.75 log and 8.63 log and the “Growth … with MSM average” value ([6]; 5.00% MSM, hour 72) was 8.69 log. The “Growth … with MSM average” value ([6]; 5.00% MSM, hour 80) was 9.79 log, the “Growth … with MSM average” value ([6]; 5.00% MSM, hour 96) was 10.20 log and the “Growth … with MSM average” value ([6]; 5.00% MSM, hour 104) was 9.56 log. The “Growth … with MSM average” value ([6]; […] MSM, Day 7) was 10.50 log, the “Growth … with MSM average” value ([6]; […] MSM, Day 14) was 7.33 log and the “Growth … with MSM average” value ([6]; […] MSM, Day 21) was 5.465 log. For the same compound, the “Growth … with MSM average” value ([6]; […] MSM, Day 28) was 3.325 log, the “Growth … with MSM average” value ([6]; […] MSM, hour 0) was 6.69 log and the “Growth … with MSM average” value ([6]; […] MSM, hour 8) was 9.02 log. For the same compound, the “Log Growth … with MSM” value ([6]; […] MSM, hour 24) was 9.01 log, the “Growth … with MSM average” value ([6]; […] MSM, hour 24) was 9.13 log and the “Growth … with MSM average” value ([6]; […] MSM, hour 32) was 9.09 log. The “Growth … with MSM average” value ([6]; […] MSM, hour 48) was 8.85 log, the “Growth … with MSM average” value ([6]; […] MSM, hour 56) was 8.76 log and the “Growth … with MSM average” value ([6]; […] MSM, hour 72) was 8.66 log. For the same compound, the “Growth … with MSM average” value ([6]; […] MSM, hour 80) was 9.74 log, the “Growth … with MSM average” value ([6]; […] MSM, hour 96) was 10.25 log and the “Growth … with MSM average” value ([6]; […] MSM, hour 104) was 9.63 log. For the same compound, the “log increase in growth, hour 0 to hour 8” value ([6]; milk fortified with MSM (all concentrations), minimum) was at least 1.73 log, the “increase over Acidophilus milk growth at Day 14” value ([6]; milk fortified with MSM (concentrations not given)) was 0.86 logs and 1.3 logs and the “Log Growth … with MSM” value ([7]; hour 0) was 6.41 log. For the same compound, the “Log Growth … with MSM” value ([7]; hour 8) was 8.67 log, the “Log Growth … with MSM” value ([7]; hour 24) was 9.16 log and the “Log Growth … with MSM” value ([7]; hour 56) was 8.56 log. The “Log Growth … with MSM” value ([7]; hour 96) was 8.61 log and the “Log Growth … with MSM” value ([7]; hour 104) was 8.92 log.
